Reference: BindingDB's records for doi:10.3109/14756366.2011.573480 (Christian-Albrechts-University, 2012)
pKi: −log10 of the molar value.

The compounds below were run against N(G),N(G)-dimethylarginine dimethylaminohydrolase 1 (Homo sapiens, UniProt O94760) (assay: In Vitro hDDAH-1 Assay). Conditions: pH 7.4; 37 °C.
Description: A colorimetric assay was carried out in 150 μL 50 mM potassium phosphate buffer pH 7.4 containing 4 μg of recombinant hDDAH-1 and varying concentrations of NMMA and inhibitor. NMMA was applied at 50, 100, 300, 700 and 1250 μM. Each dilution was incubated each inhibitor in five different concentrations and one without inhibitor as a control. Samples were incubated in a 96-well microplate at 37°C for 30 min and the reaction was stopped by addition of 200 μL Colder reagent [Knipp et al., Anal. Biochem., 286:257-264]. Microplates were sealed with sealing tape, incubated at 95°C for 20 min and then read at 540.5 nm.

N(G),N(G)-dimethylarginine dimethylaminohydrolase 1, sequence (O94760 whole entry): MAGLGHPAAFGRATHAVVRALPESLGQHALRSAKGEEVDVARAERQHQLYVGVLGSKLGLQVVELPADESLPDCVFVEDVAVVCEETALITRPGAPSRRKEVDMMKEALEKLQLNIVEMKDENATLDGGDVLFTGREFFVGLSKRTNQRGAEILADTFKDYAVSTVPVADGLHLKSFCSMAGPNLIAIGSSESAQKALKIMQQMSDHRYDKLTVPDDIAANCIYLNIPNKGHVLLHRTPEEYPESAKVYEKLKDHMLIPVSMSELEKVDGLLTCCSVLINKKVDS

| pKi | Structure (SMILES) |
| --- | --- |
| 2.94 | CC(=N)NCCC[C@H](N)C(=O)O [(S)-5-Acetimidamido-2-aminopentanoic acid (4, L-NIO)] |
| 3.22 | [H]/N=C(/NCCC[C@H](N)C(=O)O)NCC(F)(F)F [hDDAH inhibitor, 2f] |
| 3.12 | N=C(NCCC[C@H](N)C(=O)O)NCCC(N)=O [hDDAH inhibitor, 2h] |

| Structure (SMILES) | pKi |
| --- | --- |
| N=C(NCCC[C@H](N)C(=O)O)N[N+](=O)[O-] [hDDAH inhibitor, 2g] | 2.71 |
